Experimental data reported in US5308843A, “Method of inhibiting mammalian topoisomerase II and malignant cell growth in mammals, with substituted (S)-3-methyl-7-oxo-2,3-dihydro-7H-pyrido[1,2,3-de][1,4 ]-benzoxazine(and-benzothiazine)-6-carboxylic acids” (Sterling Drug Inc., priority 1990, dated 1994).

Columns and labels:
[1] = biological target: T1, human topoisomerase II (Homo sapiens, UniProt P11388); experiment: Mammalian (human) topoisomerase II inhibition assay: topo II-DNA complex stabilisation; assay type: biochemical; conditions: concentration with activity equal to the EC50 of reference mAMSA; 20 min at 37° C.
T1 construct: Topo II was purified from late log phase suspension cultures of HeLa WIS; endogenous in cells; host or cells: HeLa WIS (late log phase suspension cultures); native enzyme purified in house
From the text: Mammalian Topoisomerase II Inhibition Assay Procedure
The inhibition of human topoisomerase II (hereafter topo II) was quantitated by a procedure adapted from that described by Trask et al., EMBO J., 3, 671-676 (1984). The assay quantitates the amount of topo II covalently complexed by DNA at equilibrium during a topo II reaction. This assay determines the potential of a compound to stabilize this complex, which potential is closely related to the cytotoxicity of the compound.
Topo II was purified from late log phase suspension cultures of HeLa WIS by an adaption of the method described by Per et al., Mol. Pharmacol., 32, 17-25 (1987).
Assays (in duplicate) were assembled at 4° C. Assay mix (25 μl) was distributed in Beckman (No. 265270) 1.5 ml microtitre tubes followed by the addition of 5 μl test compound to yield the final concentrations of assay components:
4 ng 3' end labeled (32p) pBR322 DNA (10^7 DPM/μg)
The assay mix including the test compound was incubated for 20 minutes at 37° C. The reaction was terminated at 37° C. by the addition of 3 μl 10% SDS followed by the addition of 266 μl 10 mM Tris-Cl pH 7.5, 20 μg/ml BSA, 20 μg/ml calf thymus DNA, 1% SDS.
A SDS/protein precipitate was formed by the addition of 28 μl 2.5M KCl followed by chilling on ice for a minimum of 10 minutes. The precipitate was collected and washed with a Brandell cell harvester on a GFB glass fiber filter membrane as follows. The contents of the assay tube were drawn up into the harvester. The tube was then rinsed 7× with 10 mM Tris-Cl pH 7.5, 1 mM EDTA and 100 mM KCl. The precipitate was washed with 1 L of a solution of 10 mM Tris-Cl pH 7.5, 1 mM EDTA, 100 mM KCl followed by 1 L of 95% ethyl alcohol and finally 0.5 L 70% of ethyl alcohol (per 48 samples in each case). After drying, CPM was determined by liquid scintillation counting with 5 ml Biofluor (NEN Research Products) or Readisafe (Beckman Instruments Inc.) cocktail.
Preparation of test compound--A stock solution (6 mg/ml) of test compound was prepared either in 0.1N sodium hydroxide or 0.2N hydrogen chloride. This solution then was diluted 1/5 into water and serially thereafter in either 0.02N sodium hydroxide or 0.04N hydrogen chloride, respectively. The stock solution and serial dilution of the test compound was stored at -20° C. prior to testing.
Screening of test compound--As an initial screen, the test compound was tested at a final concentration of 2, 20 and 200 μg/ml.
Controls--A solvent control which indicates the base level of topo II-DNA complex formed in the absence of the test compound was included in each test. A control, in which topo II was omitted, was included for each test compound at the highest drug concentration tested.
Reference agent--A dose response curve with mAMSA at 0.01, 0.08, 0.16, 0.32, 1.0 and 10 μg/ml was included in each test.
Data reduction--The EC50 (effective concentration at which 50% of the maximal DNA-topo II complex is formed) of a test compound is defined to be the concentration with activity equal to the EC50 of the reference agent, mAMSA. The maximal DNA-topo II complex formed is taken as that equal to that formed at the nearly saturating dose of mAMSA (10 μg/ml).

[2] = tested on: purified eukaryotic topoisomerase II; conditions: Barrett et al. 1987; cited from earlier work
[3] = tested on: DNA topoisomerase II from calf thymus; conditions: Hussy et al. 1986; cited from earlier work
[4] = tested on: procaryotic and eucaryotic topoisomerase enzymes; conditions: Jefson et al. 1989; cited from earlier work
[5] = tested on: topoisomerase II of fetal calf thymus; conditions: among compared quinolones, Hoshino et al. 1989; cited from earlier work

T1 sequence (P11388 whole entry): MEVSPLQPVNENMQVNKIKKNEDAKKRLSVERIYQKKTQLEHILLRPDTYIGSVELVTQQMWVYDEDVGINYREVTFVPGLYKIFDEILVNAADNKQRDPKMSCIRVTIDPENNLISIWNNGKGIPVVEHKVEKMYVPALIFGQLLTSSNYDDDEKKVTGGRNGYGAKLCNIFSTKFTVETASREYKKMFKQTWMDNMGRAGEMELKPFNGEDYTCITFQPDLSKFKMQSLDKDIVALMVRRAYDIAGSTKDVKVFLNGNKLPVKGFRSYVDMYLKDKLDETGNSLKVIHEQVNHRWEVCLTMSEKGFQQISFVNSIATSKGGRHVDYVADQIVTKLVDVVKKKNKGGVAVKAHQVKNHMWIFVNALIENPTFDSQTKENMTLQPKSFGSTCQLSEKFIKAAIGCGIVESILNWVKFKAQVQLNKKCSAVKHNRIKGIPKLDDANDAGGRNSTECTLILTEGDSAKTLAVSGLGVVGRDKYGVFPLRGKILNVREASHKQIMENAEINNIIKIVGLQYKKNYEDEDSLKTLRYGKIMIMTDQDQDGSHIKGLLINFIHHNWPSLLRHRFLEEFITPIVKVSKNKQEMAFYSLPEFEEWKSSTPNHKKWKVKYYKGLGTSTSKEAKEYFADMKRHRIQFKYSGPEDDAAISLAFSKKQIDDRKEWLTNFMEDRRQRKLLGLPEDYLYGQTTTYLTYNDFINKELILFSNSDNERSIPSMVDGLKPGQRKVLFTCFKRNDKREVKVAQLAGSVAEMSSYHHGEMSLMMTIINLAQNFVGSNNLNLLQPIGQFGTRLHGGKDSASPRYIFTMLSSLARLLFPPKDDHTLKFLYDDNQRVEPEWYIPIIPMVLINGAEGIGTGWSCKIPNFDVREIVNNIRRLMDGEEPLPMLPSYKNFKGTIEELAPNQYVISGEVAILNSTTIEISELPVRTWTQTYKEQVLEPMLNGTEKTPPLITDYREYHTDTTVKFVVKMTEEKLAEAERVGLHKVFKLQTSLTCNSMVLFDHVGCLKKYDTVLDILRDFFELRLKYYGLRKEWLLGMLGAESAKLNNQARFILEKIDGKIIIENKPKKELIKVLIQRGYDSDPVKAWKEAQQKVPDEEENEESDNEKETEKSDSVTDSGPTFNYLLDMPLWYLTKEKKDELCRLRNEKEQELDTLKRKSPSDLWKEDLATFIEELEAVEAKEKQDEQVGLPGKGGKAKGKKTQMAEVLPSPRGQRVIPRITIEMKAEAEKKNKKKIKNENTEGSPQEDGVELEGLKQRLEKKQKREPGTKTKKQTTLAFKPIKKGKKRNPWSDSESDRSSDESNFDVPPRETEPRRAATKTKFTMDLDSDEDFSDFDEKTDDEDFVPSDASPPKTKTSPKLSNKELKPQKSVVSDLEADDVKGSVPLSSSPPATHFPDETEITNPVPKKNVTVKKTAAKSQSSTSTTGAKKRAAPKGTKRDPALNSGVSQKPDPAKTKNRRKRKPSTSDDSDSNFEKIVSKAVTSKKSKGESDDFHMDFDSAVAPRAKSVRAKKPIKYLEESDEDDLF

Cc1cc(-c2c(F)cc3c(=O)c(C(=O)O)cn4c3c2[S@@+]([O-])CC4C)cc(C)n1 (stereo partly drawn) [Example 4, (S)-10-(2,6-Dimethyl-4-pyridinyl)-9-fluoro-3-methyl-7-oxo-2,3-dihydro-7H-pyrido[1,2,3-de][1,4]benzothiazine-6-carboxylic acid 1-oxide]
EC50 [1]: 62 µM

CCn1cc(C(=O)O)c(=O)c2cc(F)c(N3CCNCC3)cc21 [norfloxacin, 1-ethyl-6-fluoro-7-(1-piperazinyl)-1,4-dihydro-4-oxo-3-quinolinecarboxylic acid]
enhancement/induction of DNA cleavage mediated by topoisomerase II (in words) [2]: not to be potent enhancers of DNA cleavage mediated by topoisomerase II | Ki values of 50% inhibition [3]: 300 µg/mL

O=C(O)c1cn(C2CC2)c2cc(N3CCNCC3)c(F)cc2c1=O [ciprofloxacin, 1-cycloproyl-6-fluoro-7-(1-piperazinyl)-1,4-dihydro-4-oxo-3-quinolinecarboxylic acid]
Ki values of 50% inhibition [3]: 150 µg/mL

CCc1cc(-c2c(F)cc3c(=O)c(C(=O)O)cn4c3c2OC[C@@H]4C)cc(C)n1 [Example 2(d), (S)-10-(2-Ethyl-6-methyl-4-pyridinyl)-9-fluoro-2,3-dihydro-3-methyl-7-oxo-7H-pyrido[1,2,3-de][1,4]benzoxazine-6-carboxylic acid]
EC50 [1]: 68 µM

C[C@H]1COc2c(-c3ccc4ncccc4c3)c(F)cc3c(=O)c(C(=O)O)cn1c23 [S-(-)-CP-100,964, (S)-9-fluoro-3-methyl-10-(6-quinolyl)-7-oxo-7H-pyrido[1,2,3-de][1,4]benzoxazine-6-carboxylic acid]
combined activity against procaryotic and eucaryotic topoisomerase enzymes (in words) [4]: combined potent activity

C[C@H]1COc2c(-c3ccncc3)c(F)cc3c(=O)c(C(=O)O)cn1c23 [S-(-)-CP-92,121, (S)-9-fluoro-3-methyl-10-(4-pyridyl)-7-oxo-7H-pyrido[1,2,3-de][1,4]benzoxazine-6-carboxylic acid]
combined activity against procaryotic and eucaryotic topoisomerase enzymes (in words) [4]: combined potent activity

Cc1cc(-c2c(F)cc3c(=O)c(C(=O)O)cn4c3c2OC[C@@H]4C)cc(C)n1 [Example 7, (S)-10-(2,6-Dimethyl-4-pyridinyl)-9-fluoro-3-methyl-7-oxo-2,3-dihydro-7H-pyrido[1,2,3-de][1,4]benzoxazine-6-carboxylic acid]
EC50 [1]: 31 µM

Cc1cc(-c2c(F)c(F)c3c(=O)c(C(=O)O)cn4c3c2OC[C@@H]4C)cc(C)n1 [Example 6, (S)-10-(2,6-Dimethyl-4-pyridinyl)-8,9-difluoro-3-methyl-7-oxo-2,3-dihydro-7H-pyrido[1,2,3-de][1,4]benzoxazine-6-carboxylic acid]
EC50 [1]: 50 µM

CCc1cc(-c2c(F)cc3c(=O)c(C(=O)O)cn4c3c2OC[C@@H]4C)ccn1 [3(c), (S)-10-(2-Ethyl-4-pyridinyl)-9-fluoro-2,3-dihydro-3-methyl-7-oxo-7H-pyrido[1,2,3-de][1,4]benzoxazine-6-carboxylic acid]
EC50 [1]: 92 µM

CC1COc2c(N3CCN(C)CC3)c(F)cc3c(=O)c(C(=O)O)cn1c23 (centres unmarked) [ofloxacin, 9-fluoro-3-methyl-10-(4-methyl-1-piperazinyl)-7-oxo-2,3-dihydro-7H-pyrido[1,2,3-de][1,4]benzoxazine-6-carboxylic acid]
potency of inhibition of topoisomerase II (in words) [5]: lowest | Ki values of 50% inhibition [3]: 1300 µg/mL

CCn1cc(C(=O)O)c(=O)c2cc(F)c(-c3ccncc3)c(F)c21 [CP-67,015, 6,8-difluoro-1-ethyl-7-(4-pyridyl)-1,4-dihydro-4-oxo-3-quinolinecarboxylic acid]
enhancement/induction of DNA cleavage mediated by topoisomerase II (in words) [2]: induced significant DNA cleavage in both the radiolabeled and cold cleavage assays

C[C@H]1COc2c(-c3ccncc3)c(F)cc3c(=O)c(C(=O)O)cn1c23 [1(b), (S)-10-(4-Pyridinyl)-9-fluoro-2,3-dihydro-3-methyl-7-oxo-7H-pyrido[1,2,3-de][1,4]benzoxazine-6-carboxylic acid]
EC50 [1]: 57 µM
